Laboratory results published in ChEMBL document CHEMBL6114971, “Design, synthesis and biological evaluation of benzo[b]thiophene analogues as novel ferroptosis inhibitor that inhibit fibrosarcoma cell proliferation” (Bioorg Med Chem, 2025).

How the values were obtained:
A549 = test: Antiproliferative activity against human A549 cells measured after 72 hrs by MTT assay; type: functional, cell-based; conditions: A549, 72 h
4T1 = test: Antiproliferative activity against mouse 4T1 cells measured after 72 hrs by MTT assay; type: functional, cell-based; conditions: 4T1, 72 h
HT-1080 [1] = test: Antiproliferative activity against human HT-1080 cells measured after 72 hrs by MTT assay; type: functional, cell-based; conditions: HT-1080, 72 h
MGC-803 = test: Antiproliferative activity against human MGC-803 cells measured after 72 hrs by MTT assay; type: functional, cell-based; conditions: MGC-803, 72 h
HT-1080 [2] = test: Antiproliferative activity against human HT-1080 cells measured after 72 hrs in presence of ferroptosis inhibitor Fer-1 by MTT assay; type: functional, cell-based; conditions: HT-1080, 72 h
[3] = Selectivity ratio of IC50 for antiproliferative activity against human HT-1080 cells in presence of ferroptosis inhibitor Fer-1 to IC50 for antiproliferative activity against human HT-1080 cells; type: functional
[4] = Cytotoxicity against human GES1 cells measured after 72 hrs by MTT assay; type: toxicity, cell-based
[5] = Cytotoxicity against HUVEC measured after 72 hrs by MTT assay; type: toxicity, cell-based; conditions: human
[6] = Selectivity index, ratio of IC50 for human GES1 cells to IC50 for human HT-1080; type: toxicity; conditions: GES1 cells versus HT-1080 cells, read-out: Ratio IC50
[7] = Selectivity index, ratio of IC50 for HUVEC to IC50 for human HT-1080; type: toxicity; conditions: HUVEC versus HT-1080 cells, read-out: Ratio IC50
[8] = biological target: T1, Phospholipid hydroperoxide glutathione peroxidase GPX4 (Homo sapiens) (UniProt P36969); test: Inhibition of GPX4 activity in human HT-1080 cells assessed as down regulation of GPX4 level at 2 uM measured after 24 hrs by Western blotting analysis; type: cell-based
T1 sequence (whole entry): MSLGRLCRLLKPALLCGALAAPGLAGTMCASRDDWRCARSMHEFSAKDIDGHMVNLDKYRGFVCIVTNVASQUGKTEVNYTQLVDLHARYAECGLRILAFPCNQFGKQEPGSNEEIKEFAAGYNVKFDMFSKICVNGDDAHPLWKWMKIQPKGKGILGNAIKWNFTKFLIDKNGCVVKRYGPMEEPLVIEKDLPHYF

[9] = biological target: T1, Phospholipid hydroperoxide glutathione peroxidase GPX4 (Homo sapiens); test: Inhibition of GPX4 activity in human HT-1080 cells assessed as down regulation of GPX4 level measured after 24 hrs by Western blotting analysis; type: cell-based; conditions: dose 0.25-4 µM
HT-1080 [10] = test: Reduction in GPX4 mRNA level in human HT-1080 cells measured after 24 hrs by qRT-PCR analysis; type: functional, cell-based; conditions: dose 0.5-4 µM
HT-1080 [11] = test: Induction of ferroptosis in human HT-1080 cells assessed as increase in intracellular Fe2+ level measured after 24 hrs; type: functional, cell-based; conditions: dose 0.5-4 µM
HT-1080 [12] = test: Induction of ROS generation in human HT-1080 cells assessed as intracellular ROS level at 0.5 uM measured after 24 hrs by DCFH-DA probe based flow cytometry (reference value: 33%); type: functional
HT-1080 [13] = test: Induction of ROS generation in human HT-1080 cells assessed as intracellular ROS level at 1 uM measured after 24 hrs by DCFH-DA probe based flow cytometry (reference value: 33%); type: functional
HT-1080 [14] = test: Induction of ROS generation in human HT-1080 cells assessed as intracellular ROS level at 2 uM measured after 24 hrs by DCFH-DA probe based flow cytometry (reference value: 33%); type: functional
HT-1080 [15] = test: Induction of ROS generation in human HT-1080 cells assessed as intracellular ROS level at 2 uM measured after 24 hrs in presence of ferroptosis inhibitor Fer-1 by DCFH-DA probe based flow cytometry (reference value: 33%); type: functional
HT-1080 [16] = test: Induction of ROS generation in human HT-1080 cells assessed as increase in intracellular ROS level measured after 24 hrs by DCFH-DA probe based flow cytometry; type: functional, cell-based; conditions: dose 0.5-2 µM
HT-1080 [17] = test: Induction of ferroptosis in human HT-1080 cells assessed as reduction in GSH level measured after 24 hrs; type: functional, cell-based; conditions: dose 0.5-4 µM
HT-1080 [18] = test: Induction of ferroptosis in human HT-1080 cells assessed as increase in MDA level measured after 24 hrs; type: functional, cell-based; conditions: dose 0.5-4 µM
HT-1080 [19] = test: Cell cycle arrest in human HT-1080 cells assessed as accumulation of cells at G1-phase at 0.5 uM measured after 24 hrs by propidium iodide staining based flow cytometry (reference value: 51.3%); type: functional
HT-1080 [20] = test: Cell cycle arrest in human HT-1080 cells assessed as accumulation of cells at S-phase at 0.5 uM measured after 24 hrs by propidium iodide staining based flow cytometry (reference value: 21.1%); type: functional
HT-1080 [21] = test: Cell cycle arrest in human HT-1080 cells assessed as accumulation of cells at G2/M-phase at 0.5 uM measured after 24 hrs by propidium iodide staining based flow cytometry (reference value: 27%); type: functional
HT-1080 [22] = test: Cell cycle arrest in human HT-1080 cells assessed as accumulation of cells at G1-phase at 1 uM measured after 24 hrs by propidium iodide staining based flow cytometry (reference value: 51.3%); type: functional
HT-1080 [23] = test: Cell cycle arrest in human HT-1080 cells assessed as accumulation of cells at S-phase at 1 uM measured after 24 hrs by propidium iodide staining based flow cytometry (reference value: 21.1%); type: functional
HT-1080 [24] = test: Cell cycle arrest in human HT-1080 cells assessed as accumulation of cells at G2/M-phase at 1 uM measured after 24 hrs by propidium iodide staining based flow cytometry (reference value: 27%); type: functional
HT-1080 [25] = test: Cell cycle arrest in human HT-1080 cells assessed as accumulation of cells at G1-phase at 2 uM measured after 24 hrs by propidium iodide staining based flow cytometry (reference value: 51.3%); type: functional
HT-1080 [26] = test: Cell cycle arrest in human HT-1080 cells assessed as accumulation of cells at S-phase at 2 uM measured after 24 hrs by propidium iodide staining based flow cytometry (reference value: 21.1%); type: functional
HT-1080 [27] = test: Cell cycle arrest in human HT-1080 cells assessed as accumulation of cells at G2/M-phase at 2 uM measured after 24 hrs by propidium iodide staining based flow cytometry (reference value: 27%); type: functional

IC50 (A549): 17.2 µM
IC50 (4T1): 16.1 µM
IC50 (HT-1080 [1]): 0.94 µM
IC50 (MGC-803): 4.48 µM
IC50 (HT-1080 [2]): 3.03 µM
inhibition [9]: Dose-dependent-effect
SMILES: COc1cc(N(Cc2csc3ccccc23)C(=O)CCl)cc(OC)c1OC
Ratio IC50 [3]: 3.21
IC50 at 72 h [4]: 103 µM
IC50 at 72 h [5]: 26.1 µM
selectivity ratio [6]: 109
selectivity ratio [7]: 27.7
inhibition [8]: Active; Significant Down Regulation Observed
Activity (HT-1080 [10]): Dose-dependent-effect
Activity (HT-1080 [11]): Dose-dependent-effect
Activity (HT-1080 [12]): 33%
Activity (HT-1080 [13]): 64.2%
Activity (HT-1080 [14]): 88.5%
Activity (HT-1080 [15]): 31.2%
Activity (HT-1080 [16]): Dose-dependent-effect
Activity (HT-1080 [17]): Dose-dependent-effect
Activity (HT-1080 [18]): Dose-dependent-effect
Activity (HT-1080 [19]): 48%
Activity (HT-1080 [20]): 28.5%
Activity (HT-1080 [21]): 23.1%
Activity (HT-1080 [22]): 38.8%
Activity (HT-1080 [23]): 37%
Activity (HT-1080 [24]): 23.8%
Activity (HT-1080 [25]): 35.5%
Activity (HT-1080 [26]): 40.7%
Activity (HT-1080 [27]): 23.9%
